Reference: paper PMC2818678 (Bioorganic & medicinal chemistry, 2009)

Columns and labels:
[1] = biological target: T1, human A1 adenosine receptor (hA1AR) (Homo sapiens, UniProt P30542); settings: at 10 μM; [3H]36; CHO cells expressing hA1AR; ref Tosh et al.[9]; cited from earlier work
T1 sequence (P30542 1-326): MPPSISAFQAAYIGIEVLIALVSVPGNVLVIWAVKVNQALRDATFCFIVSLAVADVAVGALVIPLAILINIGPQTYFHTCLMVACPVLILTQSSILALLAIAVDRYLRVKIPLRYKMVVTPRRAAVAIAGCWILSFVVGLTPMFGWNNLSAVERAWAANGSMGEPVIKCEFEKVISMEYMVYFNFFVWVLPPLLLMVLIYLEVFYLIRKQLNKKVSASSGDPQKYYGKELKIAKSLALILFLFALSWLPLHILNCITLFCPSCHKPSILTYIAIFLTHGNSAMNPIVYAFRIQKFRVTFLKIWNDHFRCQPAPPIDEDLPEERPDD

[2] = biological target: human A2A adenosine receptor (hA2AAR) (Homo sapiens, UniProt P29274); settings: at 10 μM; [3H]37; HEK293 cells expressing hA2AAR; ref Tosh et al.[9]; cited from earlier work
Sequence of human A2A adenosine receptor (hA2AAR) (P29274 whole entry): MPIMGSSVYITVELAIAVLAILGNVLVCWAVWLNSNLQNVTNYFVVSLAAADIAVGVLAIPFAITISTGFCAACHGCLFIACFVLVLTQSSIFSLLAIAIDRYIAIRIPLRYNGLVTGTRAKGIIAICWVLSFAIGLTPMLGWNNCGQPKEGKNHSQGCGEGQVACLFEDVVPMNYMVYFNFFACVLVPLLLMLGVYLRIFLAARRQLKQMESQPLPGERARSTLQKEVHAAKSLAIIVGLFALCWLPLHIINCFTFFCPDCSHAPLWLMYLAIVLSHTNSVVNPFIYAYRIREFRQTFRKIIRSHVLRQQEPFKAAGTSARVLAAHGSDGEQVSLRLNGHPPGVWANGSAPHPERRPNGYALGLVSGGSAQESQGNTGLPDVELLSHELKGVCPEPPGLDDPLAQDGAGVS

[3] = biological target: T2, human A3AR (Homo sapiens, UniProt P0DMS8); assay: Inhibition of forskolin-stimulated cAMP production in A3AR-expressing CHO cells; assay type: cell-based; settings: inhibition of forskolin-stimulated cAMP at 10 μM, NECA as reference standard
T2 sequence (P0DMS8 1-318): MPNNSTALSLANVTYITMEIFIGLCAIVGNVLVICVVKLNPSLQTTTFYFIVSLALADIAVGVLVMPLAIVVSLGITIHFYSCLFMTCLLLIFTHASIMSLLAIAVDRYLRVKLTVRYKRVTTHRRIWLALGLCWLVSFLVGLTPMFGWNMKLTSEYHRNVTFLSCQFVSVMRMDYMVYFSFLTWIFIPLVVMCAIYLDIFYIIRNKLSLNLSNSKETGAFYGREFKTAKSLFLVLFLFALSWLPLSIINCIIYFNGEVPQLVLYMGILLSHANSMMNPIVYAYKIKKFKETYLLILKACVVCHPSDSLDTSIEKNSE

[4] = biological target: T3, human A3 adenosine receptor (hA3AR) (Homo sapiens, UniProt P0DMS8); assay: Radioligand binding at human A3AR; settings: for Selectivity for hA3AR in comparison to A1 and A2AARs (in words): inhibition curves, Figure 1; for Affinity at the A3AR (in words): binding
T3 sequence (P0DMS8 1-318): T2 sequence (P0DMS8 1-318)

[5] = biological target: T1, human A1 adenosine receptor (hA1AR); assay: Radioligand binding at human A1AR; settings: read-out: % inhibition of radioligand binding, A1

In the case of `CCN1\C(=C/C=C/C=C/C2=[N+](CCCCCC(=O)NCCNC(=O)CCC#Cc3nc(NCc4cccc(Cl)c4)c4ncn([C@H]5[C@H](O)[C@H](O)[C@]6(C(=O)NC)C[C@H]56)c4n3)c3ccc(S(=O)(=O)[O-])cc3C2(C)C)C(C)(C)c2cc(S(=O)(=O)O)ccc21` [Compound 1], the “% inhibition of radioligand binding, A1” value [1] is listed as “(36±3%)”.

In the case of `CNC(=O)[C@@]12C[C@@H]1[C@@H](n1cnc3c(NCc4cccc(Cl)c4)nc(C#CCCC(=O)NCCNC(=O)CCCCC4SCC5NC(=O)NC54)nc31)[C@H](O)[C@@H]2O` (some centres unmarked) [Compound 2], the “% inhibition of radioligand binding, A1” value [1] is listed as “(1±1%)” and the “% inhibition of radioligand binding, A2A” value [2] is listed as “(51±2%)”.

For `CNC(=O)[C@@]12C[C@@H]1[C@@H](n1cnc3c(NCc4cccc(Cl)c4)nc(C#CCCC(=O)NCCNC(=O)CCCCCNC(=O)CCCCC4SCC5NC(=O)NC54)nc31)[C@H](O)[C@@H]2O` (some centres unmarked) [Compound 3], the “% inhibition of radioligand binding, A1” value [1] is given as “(12±4%)” and the “% inhibition of radioligand binding, A2A” value [2] is given as “(47±11%)”.

For `CNC(=O)[C@@]12C[C@@H]1[C@@H](n1cnc3c(NCc4cccc(Cl)c4)nc(C#CCCCCc4cn(CCNC(C)=O)nn4)nc31)[C@H](O)[C@@H]2O` [Compound 15, (1S,2R,3S,4R,5S)-6-(3-Chlorobenzylamino)-(2-(6-(1-(4-acetamidoethyl)-1H-1,2,3-triazol-4-yl)hex-1-ynyl)-9H-purin-9-yl)-2′,3′-dihydroxybicyclo[3.1.0]hexane-1′-carboxylic acid N-methylamide], the “A3AR agonist efficacy (in words)” value [3] was “highly efficacious agonists”, the “Fold more potent in A3AR binding than higher butyl homologue 17” value ([4]; compared with 17) was 4 fold and the “Selectivity for hA3AR in comparison to A1 and A2AARs (in words)” value [4] was “highly selective”.

For `CNC(=O)[C@@]12C[C@@H]1[C@@H](n1cnc3c(NCc4cccc(Cl)c4)nc(C#CCCCCc4cn(CCCCN)nn4)nc31)[C@H](O)[C@@H]2O` [Compound 16, (1S,2R,3S,4R,5S)-6-(3-Chlorobenzylamino)-(2-(6-(1-(4-aminobutyl)-1H-1,2,3-triazol-4-yl)hex-1-ynyl)-9H-purin-9-yl)-2′,3′-dihydroxybicyclo[3.1.0]hexane-1′-carboxylic acid N-methylamide], the “Affinity at the A3AR (in words)” value [4] was “only moderate affinity”.

With `CNC(=O)[C@@]12C[C@@H]1[C@@H](n1cnc3c(NCc4cccc(Cl)c4)nc(C#CCCCCc4cn(C56CC7CC(CC(C7)C5)C6)nn4)nc31)[C@H](O)[C@@H]2O` [Compound 18, (1S,2R,3S,4R,5S)-6-(3-Chlorobenzylamino)-(2-(6-(1-(adamantyl)-1H-1,2,3-triazol-4-yl)hex-1-ynyl)-9H-purin-9-yl)-2′,3′-dihydroxybicyclo[3.1.0]hexane-1′-carboxylic acid N-methylamide] the “A3AR agonist efficacy (in words)” value [3] was “partial agonist” and the “Selectivity for hA3AR in comparison to A1 and A2AARs (in words)” value [4] was “highly selective”.

For `CNC(=O)[C@@]12C[C@@H]1[C@@H](n1cnc3c(NCc4cccc(Cl)c4)nc(C#CCCCCc4cn(Cc5ccc(-n6sccc6=O)cc5)nn4)nc31)[C@H](O)[C@@H]2O` [Compound 19], the “Affinity at the A3AR (in words)” value [4] was “only moderate affinity”.

Compound `CNC(=O)[C@@]12C[C@@H]1[C@@H](n1cnc3c(NCc4cccc(Cl)c4)nc(C#CCCCCc4cn(CCCCCCNC(=O)c5ccc(-c6c7ccc(=N)c(S(=O)(=O)O)c-7oc7c(S(=O)(=O)O)c(N)ccc67)c(C(=O)O)c5)nn4)nc31)[C@H](O)[C@@H]2O` [Compound 23] has an inhibition at 10 µM [5] of 0%.

In the case of `CNC(=O)[C@H]1O[C@@H](n2cnc3c(NCc4cccc(I)c4)ncnc32)[C@H](O)[C@@H]1O` [IB-MECA, N^6-(3-iodobenzyl)-5′-N-methylcarboxamidoadenosine, reference compound], the “A3AR agonist efficacy (in words)” value [3] is reported as “full agonists”.
